Assay results: article PMC7529893, “Structural basis for substrate recognition and chemical inhibition of oncogenic MAGE ubiquitin ligases” (Nature Communications, 2020)
≈ marks a conversion by molar mass, not a printed value. Peptide text beside a SMILES is read from it.

Experiments:
[1] = biological target: T1, MAGE-A11:PCF11 interaction (GST-MAGE-A11 MHD and FAM-PCF11_4) (Homo sapiens, UniProt P43364); assay: TR-FRET dose response test of compounds for disruption of MAGE-A11:PCF11 binding; details: Supplementary Data 4; read-out: TR-FRET, IC50
T1 construct: GST-MAGE-A11 MHD (human MAGE-A11 MHD amino acid 218-429); made in house; host or cells: E. coli BL21(DE3)
T1 sequence (P43364 218-429): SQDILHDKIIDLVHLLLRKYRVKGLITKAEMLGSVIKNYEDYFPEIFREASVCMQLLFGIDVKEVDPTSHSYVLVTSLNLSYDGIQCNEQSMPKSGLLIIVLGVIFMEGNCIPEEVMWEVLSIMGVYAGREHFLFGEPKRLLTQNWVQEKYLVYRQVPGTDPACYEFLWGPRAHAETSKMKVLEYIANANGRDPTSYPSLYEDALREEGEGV
Summary of the method: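 Competition of compounds against binding of FAM-PCF11_4 peptide to GST-MAGE-A11 MHD, detected with Tb-anti-GST, in 50 mM Tris pH 7.5, 20 mM MgCl2, 0.1 mg/ml BSA, 1 mM DTT. 90 min at ~25 °C; 520/490 nm emission ratio (340 nm excitation) fitted for IC50.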

[2] = Solubility assay (μSOL Evolution); type: physicochemical; details: 18 h at RT; for solubility at 18 h: citrate phosphate-buffered saline (isotonic) with 1% DMSO
Method: Solubility assays were carried out on a Biomek FX lab automation workstation (Beckman Coulter, Inc., Fullerton, CA) using μSOL Evolution software (pION Inc., Woburn, MA). The detailed method is described as follows. 10 µl of 10 mM compound stock (in DMSO) was added to 190 μl 1-propanol to make a reference stock plate. In total, 5 µl from this reference stock plate were mixed with 70 µl 1-propanol and 75 µl citrate phosphate-buffered saline (PBS; isotonic) to make the reference plate, and the UV spectrum (250–500 nm) of the reference plate was read. In total, 6 µl of 10 mM test compound stock was added to 594 µl buffer in a 96-well storage plate and mixed. The storage plate was sealed and incubated at RT for 18 h. The suspension was then filtered through a 96-well filter plate (pION Inc., Woburn, MA). In all, 75 µl of filtrate was mixed with 75 µl 1-propanol to make the sample plate, and the UV spectrum of the sample plate was read. Calculations were carried out with μSOL Evolution software based on the area under the curve (AUC) of the UV spectrum of the sample and reference plates. All compounds were tested in triplicate.

Caco-2 cells = assay: High throughput Caco-2 permeability; type: in vitro ADME; details: 10 µmol/l, 2 h; for Papp A→B: apical to basolateral; for Papp B→A: basolateral to apical
Method: (§1) High throughput Caco-2 permeability was performed in the TranswellR 0.4 µm polycarbonate membrane 96-well system with modified methods. Caco-2 cells were maintained at 37 °C in a humidified incubator with an atmosphere of 5% CO2. The cells were cultured in 75 cm^2 flasks with Dulbecco’s Modified Eagle’s Medium (DMEM) containing 10% (v/v) FBS, 1% (v/v) non-essential amino acids (NEAA), 100 units/ml of penicillin, and 100 µg/ml of streptomycin. The Caco-2 cells were seeded onto inserts at a density of 2 × 10^4 cells/insert separately. The medium in the wells was exchanged each other day, and the trans epithelial electrical resistance (TEER) value was measured using an epithelial voltohm meter (Millipore, Billerica, Massachusetts). […] For transport experiments, each cultured monolayer on the 96-well plate was washed twice with a transport buffer (HBSS containing 25 mM HEPES, pH 7.4). The permeability assay was initiated by the addition of each compound solution (10 µmol/l) into inserts (apical side, A) or receivers (basolateral side, B). The Caco-2 cell monolayers were incubated for 2 h at 37 °C. Fractions were collected from receivers (if apical to basal permeability) or inserts (if basal to apical permeability), and concentrations were assessed by UPLC/MS (Waters; Milford, MA). All compounds were tested in triplicates. The A → B (or B → A) apparent permeability coefficients (Papp) of each compound were calculated using the equation, Papp = dQ/dt × 1/AC0, where dQ/dt equals the flux of a drug across the monolayer, A equals the total insert well surface area, and C0 is the initial concentration of substrate in the donor compartment. The efflux ratio was determined by dividing the Papp in the B-A direction by the Papp in the A-B direction.

GST-MAGE-A11 MHD = biological target: T2, GST-MAGE-A11 MHD (Homo sapiens, UniProt P43364); assay: TR-FRET competition assay of PCF11 peptides against GST-MAGE-A11 MHD / FAM-PCF11_4; details: Fig. 1c, panel of eight PCF11 peptides; read-out: IC50, binding of PCF11 peptide to GST-MAGE-A11 by TR-FRET
T2 construct: GST-MAGE-A11 MHD (human MAGE-A11 MHD amino acid 218-429); made in house; host or cells: E. coli BL21(DE3)
T2 sequence (P43364 218-429): T1 sequence (P43364 218-429)
Method: The TR-FRET assay buffer with a formula of 50 mM Tris pH 7.5, 20 mM MgCl2, 0.1 mg/ml BSA and 1 mM DTT was freshly prepared before each experiment. All TR-FRET assays were performed in black 384-well plates with 20 µl/well assay volume in the TR-FRET assay buffer at room temperature (~25 °C). All peptides or compounds were solubilized in DMSO. To test the competitive activity of peptides or compounds against the interaction between GST-MAGE-A11 MHD and FAM-PCF11_4 peptide, 10 µl/well peptide or compound at specified concentration was dispensed into a black 384-well low volume plate, followed by 5 µl/well FAM-PCF11_4 (800 nM), 5 µl/well Tb-anti-GST (20 nM), and GST-MAGE-A11 MHD (20 nM). The assay components in each well was then mixed by shaking the plate on an IKA MTS 2/4 digital microtiter plate shaker (IKA Works; Wilmington, NC, USA) for 1 min. The plate was further centrifuged in an Eppendorf 5810 centrifuge with an A-4-62 swing-bucket rotor (Eppendorf AG, Hamburg, Germany) at 201 g for 30 s. The plate was then incubated for 90 min with a lid to avoid light exposure to the assay components. After incubation, the fluorescent emission signals at 520 nm and 490 nm channels of individual wells were measured with a PHERAstar FS plate reader (BMG Labtech; Durham, NC, USA) by using a 340 nm excitation filter, 100 µs delay time, and 200 µs integration time. The TR-FRET fluorescence emission ratio (TR-FRET signal) for each well was presented as 10,000 × 520 nm/490 nm, which was used directly for curve fitting, or further converted to %Inhibition based on the respective positive and negative controls. The graphic software GraphPad Prism 4.81 (GraphPad Software; La Jolla, CA, USA) was used to generate curves and derive IC50 values of tested peptides or compounds, if applicable.
TR-FRET inhibitory activity characterization of a panel of PCF11 peptides against the interaction between GST-MAGE-A11 MHD and FAM-PCF11_4 was performed as follows. In a 20-µl/well assay volume, dilutions of PCF11_1 to PCF11_8 peptides (concentrations ranged from 3.1 nM to 100 µM for peptides PCF11_4, PCF11_5, PCF11_6 and PCF11_8 in a 1-to-2 dilution pattern for 16 concentration levels, and ranged from 48.9 nM to 100 µM for peptides of PCF11_1, PCF11_2, PCF11_3, and PCF11_7 in a 1-to-2 dilution pattern for 12 concentration levels), 200 nM FAM-PCF11_4, 5 nM Tb-anti-GST and 5 nM GST-MAGE-A11 were mixed together and incubated for 90 min before the TR-FRET signal for each well was measured. The final DMSO concentration was 1.1% (v/v). […] The signal of each peptide-treated well (Signalpeptide) was normalized to the positive and negative controls to derive %inhibition of the peptide at a specific concentration with Eq. (1). Where applicable, the %Inhibition data were fit into a Sigmoidal dose response equation to derive IC50 values.1 %Inhibition=100%−100%×(Signalpeptide−SignalDMSOwithoutGST-MAGEA11)/SignalDMSO−SignalDMSOwithoutGST-MAGEA11.

[3] = High throughput Caco-2 permeability; type: in vitro ADME; details: human, Caco-2, pH 7.4, 10 µmol/l, 2 h; for Papp A→B at 2 h, 10 µmol/l: apical to basolateral; for Papp B→A at 2 h, 10 µmol/l: basolateral to apical
Method: as §1

| Structure (SMILES) | IC50 [1] | Solubility [2] | Papp A→B (Caco-2 cells) | Papp B→A (Caco-2 cells) | IC50 (GST-MAGE-A11 MHD) | solubility at 18 h [2] | Papp A→B at 2 h, 10 µmol/l [3] | Papp B→A at 2 h, 10 µmol/l [3] |
| --- | --- | --- | --- | --- | --- | --- | --- | --- |
| Clc1ccc2c(NCCCNCc3ccc4[nH]ccc4c3)ccnc2c1 [SJ000520909-03] | 240 nM | 59.80 µM (≈ 21.8 µg/mL) | 19.6 ×10⁻⁶ cm/s | 21.3 ×10⁻⁶ cm/s |  |  |  |  |
| Brc1ccc2c(NCCCNCc3ccc4[nH]ccc4c3)ccnc2c1 [SJ001008065-01] | 620 nM | 57.14 µM (≈ 23.4 µg/mL) | 18.3 ×10⁻⁶ cm/s | 19.3 ×10⁻⁶ cm/s |  |  |  |  |
| CC[C@H](C)[C@H](NC(=O)[C@H](CCC(N)=O)NC(=O)[C@H](Cc1c[nH]cn1)NC(=O)[C@@H](NC(=O)[C@@H](NC(=O)[C@@H](NC(=O)[C@H](CC(C)C)NC(=O)[C@H](Cc1ccccc1)NC(=O)[C@H](CC(=O)O)NC(=O)[C@H](CC(=O)O)NC(=O)[C@@H](N)CCC(N)=O)C(C)C)C(C)C)C(C)C)C(=O)N[C@@H](CCCNC(=N)N)C(=O)N[C@@H](CCC(N)=O)C(=O)N[C@@H](CC(C)C)C(=O)N[C@@H](Cc1ccccc1)C(=O)N[C@@H](CCC(N)=O)C(=O)N[C@@H](Cc1ccc(O)cc1)C(=O)N[C@@H](CCC(N)=O)C(=O)N[C@@H](CCC(=O)O)C(=O)NCC(=O)O [PCF11_5] (H-QDDFLVVVHQIRQLFQYQEG-OH; N-terminus assumed) |  |  |  |  | 77 nM |  |  |  |
| FC(F)(F)c1cc(-c2ccc3c(NCCCNCc4ccco4)ccnc3c2)cc(C(F)(F)F)c1 [SJ000311270-01, FC(F)(F)c1cc(cc(c1)C(F)(F)F)c2ccc3c(NCCCNCc4occc4)ccnc3c2] | 580 nM |  |  |  |  | 61.1 µM (≈ 30.1 µg/mL) | 0.326 ×10⁻⁶ cm/s | 0.079 ×10⁻⁶ cm/s |
| CC[C@H](C)[C@H](N)C(=O)N[C@H](C(=O)N[C@@H](CCC(N)=O)C(=O)N[C@@H](CC(=O)O)C(=O)N[C@@H](CC(=O)O)C(=O)N[C@@H](Cc1ccccc1)C(=O)N[C@@H](CC(C)C)C(=O)N[C@H](C(=O)N[C@H](C(=O)N[C@H](C(=O)N[C@@H](Cc1c[nH]cn1)C(=O)N[C@@H](CCC(N)=O)C(=O)N[C@H](C(=O)N[C@@H](CCCNC(=N)N)C(=O)N[C@@H](CCC(N)=O)C(=O)N[C@@H](CC(C)C)C(=O)N[C@@H](Cc1ccccc1)C(=O)N[C@@H](CCC(N)=O)C(=O)N[C@@H](Cc1ccc(O)cc1)C(=O)N[C@@H](CCC(N)=O)C(=O)N[C@@H](CCC(=O)O)C(=O)NCC(=O)N[C@H](C(=O)N[C@@H](CCCNC(=N)N)C(=O)N[C@@H](CCC(=O)O)C(=O)O)C(C)C)[C@@H](C)CC)C(C)C)C(C)C)C(C)C)[C@@H](C)O [PCF11_4] (H-ITQDDFLVVVHQIRQLFQYQEGVRE-OH; N-terminus assumed) |  |  |  |  | 59 nM |  |  |  |
| CC[C@H](C)[C@H](NC(=O)[C@H](CCC(N)=O)NC(=O)[C@H](Cc1c[nH]cn1)NC(=O)[C@@H](NC(=O)[C@@H](NC(=O)[C@@H](NC(=O)[C@H](CC(C)C)NC(=O)[C@H](Cc1ccccc1)NC(=O)[C@H](CC(=O)O)NC(=O)[C@H](CC(=O)O)NC(=O)[C@H](CCC(N)=O)NC(=O)[C@@H](NC(=O)[C@@H](NC(=O)[C@H](CCC(=O)O)NC(=O)CN)[C@@H](C)CC)[C@@H](C)O)C(C)C)C(C)C)C(C)C)C(=O)O [PCF11_3] (H-GEITQDDFLVVVHQI-OH; N-terminus assumed) |  |  |  |  | > 50000 nM |  |  |  |
| C=CC(=O)N(CCCNc1ccnc2ccccc12)Cc1ccc2[nH]ccc2c1 [SJ001009807-01] | 3500 nM | 34.77 µM (≈ 13.4 µg/mL) | 2.73 ×10⁻⁶ cm/s | 18.9 ×10⁻⁶ cm/s |  |  |  |  |
| CC(C)(C)c1ccc(-c2ccc3c(NCCCNCc4ccco4)ccnc3c2)cc1 [SJ000311286-01, CC(C)(C)c1ccc(cc1)c2ccc3c(NCCCNCc4occc4)ccnc3c2] | 1160 nM |  |  |  |  | 56.2 µM (≈ 23.2 µg/mL) | 0.578 ×10⁻⁶ cm/s | 0.12 ×10⁻⁶ cm/s |
| FC(F)(F)c1ccc2c(NCCCNCc3ccco3)ccnc2c1 [SJ000361113-02] | > 70000 nM | 119.10 µM (≈ 41.6 µg/mL) | 50.2 ×10⁻⁶ cm/s | 40.1 ×10⁻⁶ cm/s |  |  |  |  |
| CC(C)(C)c1ccc(-c2ccc3c(NCCCNCc4ccc5[nH]ccc5c4)ccnc3c2)cc1 [SJ001008068-01] | 130 nM | 0.67 µM (≈ 0.31 µg/mL) | 0.368 ×10⁻⁶ cm/s | 1.54 ×10⁻⁶ cm/s |  |  |  |  |
| FC(F)(F)c1cc(-c2ccc3c(NCCCNCc4ccc5[nH]ccc5c4)ccnc3c2)cc(C(F)(F)F)c1 [SJ001008069-01] | 200 nM | 0.12 µM (≈ 0.0651 µg/mL) | 0.498 ×10⁻⁶ cm/s | 0.229 ×10⁻⁶ cm/s |  |  |  |  |
| FC(F)(F)c1ccc2c(NCCCNCc3ccc4c(c3)OCO4)ccnc2c1 [SJ000361106-02] |  | 128.74 µM (≈ 51.9 µg/mL) | 47 ×10⁻⁶ cm/s | 40 ×10⁻⁶ cm/s |  |  |  |  |
